Laboratory results published in patent US20250179077A1, “QUINAZOLINE COMPOUNDS AND USES THEREOF AS INHIBITORS OF MUTANT KRAS PROTEINS” (AMGEN INC., priority 2022, published 2025).
pIC50: −log10 of the molar value. Read-outs that look alike come from different tables or passages of the source.

How the values were obtained:
[1] = biological target: His-tagged KRAS G12D protein (Homo sapiens, UniProt P01116, G12D); experiment: KRAS G12D TR-FRET Assay; format: binding
Procedure, shortened: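 His-KRAS G12D (20 nM) was preincubated with titrated compound for 30 min at RT in HEPES pH 7.4 buffer with MgCl2, 10 μM GDP. Biotin-KRPep-2d (20 nM) was then added for 1 h, followed by Eu-anti-His/streptavidin-d2 for 1 h. The 665/615 nm TR-FRET ratio was fitted 4-parameter to give IC50.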

[2] = system: Phosphorylation of ERK1/2 in AsPC-1 cells; experiment: Phospho-ERK1/2 MSD Assay; format: cell-based
Procedure, shortened: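 Phospho-ERK1/2 was quantified by MSD whole-cell lysate immunoassay in RIPA lysates made with protease/phosphatase inhibitors. A 4-parameter logistic model gave IC50.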

[3] = biological target: GDP-bound KRAS protein (aa 1-169), containing both G12D and C118A amino acid substitutions (Homo sapiens, UniProt P01116, C118A/G12D); experiment: KRAS G12D Coupled Nucleotide Exchange Assay; format: biochemical
Method: KRAS G12D Coupled Nucleotide Exchange Assay
Following compound pre-incubation, purified SOS protein (aa 564-1049) and GTP (Roche 10106399001) were added to the assay wells and incubated for an additional 30 min. […] The assay plates were then read on a PerkinElmer EnVision Multilabel Reader, using AlphaScreen® technology, and data were analyzed using a 4-parameter logistic model to calculate IC50 values.

[4] = Homo sapiens, ASPC1, 2 h, read-out: 2 h p-ERK (AsPC-1 cells), IC50, AsPC-1 cells, 2 h compound treatment
[5] = read-out: 2 h p-ERK (AsPC-1 cells), IC50, AsPC-1 cells, 2 h compound treatment

Sequence of GDP-bound KRAS protein (aa 1-169), containing both G12D and C118A amino acid substitutions (P01116 1-169 isoform P01116-2 G12D/C118A): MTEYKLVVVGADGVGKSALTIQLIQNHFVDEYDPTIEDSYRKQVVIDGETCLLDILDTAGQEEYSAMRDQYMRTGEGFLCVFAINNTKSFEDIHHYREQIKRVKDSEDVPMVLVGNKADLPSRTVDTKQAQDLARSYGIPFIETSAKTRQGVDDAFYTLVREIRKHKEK
Sequence of His-tagged KRAS G12D protein (P01116 1-188 isoform P01116-2 G12D): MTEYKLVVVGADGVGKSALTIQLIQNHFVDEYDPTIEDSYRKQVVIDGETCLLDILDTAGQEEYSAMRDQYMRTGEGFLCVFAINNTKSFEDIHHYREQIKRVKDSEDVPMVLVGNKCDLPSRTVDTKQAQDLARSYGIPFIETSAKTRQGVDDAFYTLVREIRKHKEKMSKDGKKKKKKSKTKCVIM

Row | pIC50 [1] | pIC50 [2, 4] | IC50 [3] | pIC50 [2, 5] | Structure (SMILES)
1 | 8.40 | 7.44 | 0.003 µM |  | C/C=C\c1c(C)cc2[nH]ncc2c1-c1c(F)cc2c(N3CCC[C@](O)(CF)C3)nc(OC[C@@]34CCCN3C[C@H](F)C4)nc2c1F (single isomer, unassigned) [Example 102]
2 | 8.05 | 7.03 | 0.005 µM |  | C[C@@H]1CC1c1c(Cl)cc2[nH]ncc2c1-c1c(F)cc2c(N3CCOCC(O)(CF)C3)nc(OC[C@@]34CCCN3C[C@H](F)C4)nc2c1F (single isomer, unassigned) [Example 99]
3 | 8.05 | 6.81 | 0.006 µM |  | Cc1cc2[nH]ncc2c(-c2c(F)cc3c(N4CCC[C@@](C)(O)C4)nc(OC[C@@]45CCCN4C[C@H](F)C5)nc3c2F)c1[C@H]1C[C@H]1C (atropisomer, axis not shown; (aS)) [Example 121, (R)-1-((S)-6,8-Difluoro-2-(((2R,7aS)-2-fluorotetrahydro-1H-pyrrolizin-7a(5H)-yl)methoxy)-7-(6-methyl-5-((1S,2R)-2-methylcyclopropyl)-1H-indazol-4-yl)quinazolin-4-yl)-3-methylpiperidin-3-ol bis(2,2,2-trifluoroacetate)]
4 | 8.30 | 7.26 | 0.004 µM |  | C[C@@H]1C[C@@H]1c1c(Cl)cc2[nH]ncc2c1-c1c(F)cc2c(N3CCC[C@]4(CNC(=O)O4)C3)nc(OC[C@@]34CCCN3C[C@H](F)C4)nc2c1F (relative stereo) [Example 111, (5S)-7-(7-(6-Chloro-5~(2-methylcyclopropyl)-1H-indazol-4-yl)-6,8-difluoro-2-(((2R,7aS)-2-fluorotetrahydro-1H-pyrrolizin-7a(5H)-yl)methoxy)quinazolin-4-yl)-1-oxa-3,7-diazaspiro[4.5]decan-2-one 2,2,2-trifluoroacetate]
5 | 8.40 | 7.54 | 0.002 µM |  | CCc1c(F)ccc2cc(N)cc(-c3c(F)cc4c(N5CCC[C@]6(CNC(=O)O6)C5)nc(OC[C@@]56CCCN5C[C@H](F)C6)nc4c3F)c12 (single isomer, unassigned) [Example 97]
6 | 8.40 | 7.00 | 0.004 µM |  | C/C=C\c1c(Cl)cc2[nH]ncc2c1-c1ccc2c(N3CCC[C@](O)(CF)C3)nc(OC[C@@]34CCCN3C[C@H](F)C4)nc2c1F (single isomer, unassigned) [Example 109]
7 | 8.05 | 6.91 | 0.008 µM |  | C[C@@H]1C[C@@H]1c1c(Cl)cc2[nH]ncc2c1-c1ccc2c(N3CCC[C@@](C)(O)C3)nc(OC[C@@]34CCCN3C[C@H](F)C4)nc2c1F (atropisomer, axis not shown; (aS)) [Example 110, (R)-1-((R)-7-(6-Chloro-5-((1S,2R)-2-methylcyclopropyl)-1H-indazol-4-yl)-8-fluoro-2-(((2R,7aS)-2-fluorotetrahydro-1H-pyrrolizin-7a(5H)-yl)methoxy)quinazolin-4-yl)-3-methylpiperidin-3-ol]
8 | 8.40 | 7.05 | 0.003 µM |  | Cc1cc2[nH]ncc2c(-c2c(F)cc3c(N4CCC[C@](O)(CF)C4)nc(OC[C@@]45CCCN4C[C@H](F)C5)nc3c2F)c1C1CC1 (single isomer, unassigned) [Example 100]
9 | 8.15 | 7.55 | 0.003 µM |  | C[C@@H]1C[C@@H]1c1c(Cl)cc2[nH]ncc2c1-c1c(F)cc2c(N3CCOC[C@@](C)(O)C3)nc(OC[C@@]34CCCN3C[C@H](F)C4)nc2c1F (single isomer, unassigned) [Example 98]

The remaining lines, values behind:

Row | Structure (SMILES) | pIC50 [1] | pIC50 [2, 4] | IC50 [3] | pIC50 [2, 5]
10 | Oc1cc(-c2c(F)cc3c(N4CCC[C@]5(CCO5)C4)nc(OC[C@@]45CCCN4C[C@H](F)C5)nc3c2F)c2c(F)c(F)ccc2c1 [Example 79, 4-(6,8-Difluoro-2-(((2R,7aS)-2-fluorotetrahydro-1H-pyrrolizin-7a(5H)-yl)methoxy)-4-((S)-1-oxa-6-azaspiro[3.5]nonan-6-yl)quinazolin-7-yl)-5,6-difluoronaphthalen-2-ol] | 8.05 | 7.48 | 0.005 µM | 
11 | CCc1c(F)ccc2cc(O)cc(-c3ccc4c(N5CCC[C@]6(CNC(=O)O6)C5)nc(OC[C@@]56CCCN5C[C@H](F)C6)nc4c3F)c12 (single isomer, unassigned) [Example 88] | 7.82 | 7.89 | 0.006 µM | 
12 | CCc1cccc2cc(O)cc(-c3c(F)cc4c(N5CCC[C@]6(CCO6)C5)nc(OC[C@@]56CCCN5C[C@H](F)C6)nc4c3F)c12 [Example 77, 4-(6,8-Difluoro-2-(((2R,7aS)-2-fluorotetrahydro-1H-pyrrolizin-7a(5H)-yl)methoxy)-4-((S)-1-oxa-6-azaspiro[3.5]nonan-6-yl)quinazolin-7-yl)-5-ethylnaphthalen-2-ol] | 8.22 | 7.54 | 0.004 µM | 
13 | C#Cc1cccc2cc(O)cc(-c3ccc4c(N5CC6CC(O)C(C6)C5)nc(OC[C@@]56CCCN5C[C@H](F)C6)nc4c3F)c12 (single isomer, unassigned) [Example 16] | 8.70 | 6.88 | 0.002 µM | 
14 | CCc1c(F)ccc2cc(O)cc(-c3c(F)cc4c(N5CCCC6(CCO6)C5)nc(OC[C@@]56CCCN5C[C@H](F)C6)nc4c3F)c12 (single isomer, unassigned) [Example 38] | 7.92 |  | 0.012 µM | 6.37
15 | CCc1c(F)ccc2cc(N)cc(-c3c(F)cc4c(N5CCOCC(C)(O)C5)nc(OC[C@@]56CCCN5C[C@H](F)C6)nc4c3F)c12 (single isomer, unassigned) [Example 71] | 6.95 |  | 0.014 µM | 5.85
16 | CCc1c(F)ccc2cc(O)cc(-c3c(N)cc4c(N5CCCOCC5)nc(OC[C@@]56CCCN5C[C@H](F)C6)nc4c3F)c12 [Example 46, 4-(6-Amino-8-fluoro-2-(((2R,7aS)-2-fluorotetrahydro-1H-pyrrolizin-7a(5H)-yl)methoxy)-4-(1,4-oxazepan-4-yl)quinazolin-7-yl)-5-ethyl-6-fluoronaphthalen-2-ol] | 7.10 | 5.59 | 0.036 µM | 
17 | C#Cc1c(F)ccc2cc(O)cc(-c3c(F)cc4c(N5CCC[C@@](C)(O)C5)nc(OC[C@@]56CCCN5C[C@H](F)C6)nc4c3F)c12 (single isomer, unassigned) [Example 14] | 9.00 |  | 0.002 µM | 8.52
18 | CCc1c(F)ccc2cc(O)cc(-c3c(F)cc4c(N5CCCOCC5)nc(OC[C@@]56CCCN5C[C@H](F)C6)nc4c3F)c12 [Example 9, 4-(6,8-Difluoro-2-(((2R,7aS)-2-fluorotetrahydro-1H-pyrrolizin-7a(5H)-yl)methoxy)-4-(1,4-oxazepan-4-yl)quinazolin-7-yl)-5-ethyl-6-fluoronaphthalen-2-ol] | 8.40 | 6.59 | 0.003 µM | 
19 | CCc1c(F)ccc2cc(O)cc(-c3ccc4c(N5CCCC6(CCO6)C5)nc(OC[C@@]56CCCN5C[C@H](F)C6)nc4c3F)c12 (stereo partly drawn) [Example 40, 5-Ethyl-6-fluoro-4-(8-fluoro-2-(((2R,7aS)-2-fluorotetrahydro-1H-pyrrolizin-7a(5H)-yl)methoxy)-4-(1-oxa-6-azaspiro[3.5]nonan-6-yl)quinazolin-7-yl)naphthalen-2-ol] | 8.22 | 7.28 | 0.011 µM | 
20 | CCc1c(F)ccc2cc(O)cc(-c3ccc4c(N5CCCC6(CNC(=O)C6)C5)nc(OC[C@@]56CCCN5C[C@H](F)C6)nc4c3F)c12 (stereo partly drawn) [Example 53, 7-(7-(8-Ethyl-7-fluoro-3-hydroxynaphthalen-1-yl)-8-fluoro-2-(((2R,7aS)-2-fluorotetrahydro-1H-pyrrolizin-7a(5H)-yl)methoxy)quinazolin-4-yl)-2,7-diazaspiro[4.5]decan-3-one] | 8.52 | 6.60 | 0.007 µM | 
21 | CCc1c(F)ccc2cc(O)cc(-c3c(F)cc4c(N5C[C@H]6CC[C@@H](C5)O6)nc(OC[C@@]56CCCN5C[C@H](F)C6)nc4c3F)c12 (relative stereo) [Example 18, rel-4-(4-((1R,5S)-8-Oxa-3-azabicyclo[3.2.1]octan-3-yl)-6,8-difluoro-2-(((2R,7aS)-2-fluorotetrahydro-1H-pyrrolizin-7a(5H)-yl)methoxy)quinazolin-7-yl)-5-ethyl-6-fluoronaphthalen-2-ol] | 7.34 | 5.54 | 0.037 µM | 
22 | CCc1c(F)ccc2cc(O)cc(-c3ccc4c(N5C[C@H](N)CC(F)(F)C5)nc(OC[C@@]56CCCN5C[C@H](F)C6)nc4c3F)c12 [Example 4, 4-(4-((R)-5-Amino-3,3-difluoropiperidin-1-yl)-8-fluoro-2-(((2R,7aS)-2-fluorotetrahydro-1H-pyrrolizin-7a(5H)-yl)methoxy)quinazolin-7-yl)-5-etbyl-6-fluoronaphthalen-2-ol] | 9.52 | 6.37 | 0.0005 µM | 
